# Assay results taken from patent US20030096893A1, “Oxidatively drying coating composition” (priority 2001, published 2003).
# Like-named read-outs stand apart in the source and are kept apart here.
# Assay: Solubility of the ligand in Shellsol D40 at 23° C.
# Type: physicochemical
# Method: This condensation product was added to Shellsole® D40 at a temperature of 23° C. The solubility of the ligand was less than 10 g/l.
# Comparative Example A was repeated using 2-hydroxy 5-methyl benzaldehyde instead of salicyl aldehyde. Again, the resulting ligand was added to Shellsol® D40 at a temperature of 23° C. The solubilty of the ligand was less than 10 g/l.
# (§1) Comparative Example A was repeated using 2-hydroxy 3,5-di tert. butyl benzaldehyde instead of salicyl aldehyde. Obtained was a ligand according to formula I having two tert. butyl substitutions on the two aromatic groups A1 and A2. The solubility in Shellsol® D40 at a temperature of 23° C. was higher than 20 g/l.
# as §1, with “repeated again, now” for “repeated”, “5-dodecyl” for “3,5-di tert. butyl”, “a dodecyl substitution” for “two tert. butyl substitutions”, “100” for “20”
# [1] = Shellsol D40 (aromate-free organic solvent), 23° C.
solubility of the ligand in Shellsol D40,Structure (SMILES),solubility of the ligand in Shellsol D40 [1]
,Cc1ccc(O)c(C=NC2CCCCC2N=Cc2cc(C)ccc2O)c1 (stereo not shown) [B],less than 10 g/l
less than 10 g/l,"Oc1ccccc1C=NC1CCCCC1N=Cc1ccccc1O (stereo not shown) [Comparative Example A, N,N′-bis(salicylidene) cyclohexylene diamine]",
,CC(C)(C)c1cc(C=NC2CCCCC2N=Cc2cc(C(C)(C)C)cc(C(C)(C)C)c2O)c(O)c(C(C)(C)C)c1 (stereo not shown) [Example 1],higher than 20 g/l
,CCCCCCCCCCCCc1ccc(O)c(C=NC2CCCCC2N=Cc2cc(CCCCCCCCCCCC)ccc2O)c1 (stereo not shown) [Example 2],higher than 100 g/l
